Source: patent US20120270875A1, “PYRIMIDINE AMIDE COMPOUNDS” (priority 2011, published 2012)

What was measured:
sLFA-1/ICAM-1 = sLFA-1/ICAM-1 (Homo sapiens, UniProt P05107+P20701, DEL701-769); assay: sLFA-1/ICAM-1 ELISA; assay type: binding; conditions: sLFA-1 coated plates, 5dICAM-Fc binding, ELISA; read-out: LFA-1/ICAM (IC50)
Experimental: (§1) sLFA-1/ICAM-1 ELISA and Mac-1/ICAM-1 ELISA
(§2) Plates were coated with either 50 μl/well of 2.0 ug/ml solution of sLFA-1 or Mac-1 receptor in divalent cation buffer (1 mM MnCl2, 0.14M NaCl, 20 mM HEPES pH 7.2) at 4° C. overnight. Two hundred fifty μl of blocking buffer (1% BSA in divalent cation buffer) was added to each well 1 hour at 37° C. Plates were washed 3 times with wash buffer (TBS/0.05% Tween-20/1 mM MnCl2). The compound to be tested was solubilized in DMSO. A series of 1:3 dilutions were performed to achieve a concentration range of 0.45 nM-3 uM. Fifty μl of binding buffer (0.5% BSA in divalent cation buffer)/1% DMSO and 50 μl of the solutions to be tested were added to the appropriate wells and incubated for 1 hour. Fifty μl of 5dICAM-Fc (27 ng/ml) was added to the appropriate wells and 50 μl binding buffer was added to non-specific binding wells and incubated for 2 hours and washed. One hundred μl of 1:4000 HRP-goat anti-huIgG was added to each well and incubated for 1 hour and washed. One hundred μl of 1:1 TMB solution was added to each well and developed for 20 min at room temperature. Color development was stopped by adding 100 μl H3PO4 to each well. Absorbance was measured at 450 nm.

Mac-1/ICAM-1 = Mac-1/ICAM-1 (Homo sapiens, UniProt P05107+P11215); assay: Mac-1/ICAM-1 ELISA; conditions: Mac-1 coated plates, 5dICAM-Fc binding
Mac-1/ICAM-1, sequence (P05107 23-769, other chains not shown): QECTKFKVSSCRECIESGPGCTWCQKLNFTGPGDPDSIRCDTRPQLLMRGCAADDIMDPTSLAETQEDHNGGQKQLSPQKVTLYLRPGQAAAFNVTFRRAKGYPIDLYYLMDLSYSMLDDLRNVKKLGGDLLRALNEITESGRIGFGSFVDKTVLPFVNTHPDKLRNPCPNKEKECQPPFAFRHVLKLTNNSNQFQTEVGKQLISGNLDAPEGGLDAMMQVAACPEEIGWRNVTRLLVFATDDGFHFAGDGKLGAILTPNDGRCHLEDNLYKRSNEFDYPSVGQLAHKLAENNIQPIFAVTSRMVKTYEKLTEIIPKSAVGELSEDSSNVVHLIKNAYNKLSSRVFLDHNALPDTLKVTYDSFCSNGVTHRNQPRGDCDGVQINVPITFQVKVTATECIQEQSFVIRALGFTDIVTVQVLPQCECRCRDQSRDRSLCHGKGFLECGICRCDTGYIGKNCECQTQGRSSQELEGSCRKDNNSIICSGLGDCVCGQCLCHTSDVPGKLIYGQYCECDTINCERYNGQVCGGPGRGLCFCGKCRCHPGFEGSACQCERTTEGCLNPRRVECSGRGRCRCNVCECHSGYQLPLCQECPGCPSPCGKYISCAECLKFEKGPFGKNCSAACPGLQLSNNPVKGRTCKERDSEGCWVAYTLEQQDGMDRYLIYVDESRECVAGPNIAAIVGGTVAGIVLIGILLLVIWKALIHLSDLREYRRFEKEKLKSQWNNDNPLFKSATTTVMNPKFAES
Experimental: as §1, §2

[1] = system: PBMC's from two healthy donors; assay: Human Mixed Lymphocyte Reaction (hMLR); assay type: cell-based; conditions: 3H-thymidine incorporation, read-out: human MLR (IC50)
Experimental: Human Mixed Lymphocyte Reaction (hMLR)
PBMC's were isolated from two healthy donors by Ficoll gradient. Cells were resuspended with 4 mL assay media and counted with a Coulter Counter. Both cell populations were resuspended to 1×10^7/mL. Stimulator cells were irradiated for 2.5 min (2000 RAD) in cesium irradiator. 5×10^5 cells were added to duplicate wells of the plate. Included were quadruplicate wells receiving responder cells alone and stimulator cells alone. The compound to be tested was solubilized in DMSO. A series of 1:3 dilutions were performed to achieve a concentration range of 0.45 nM-3 uM. One hundred μl of the solutions to be tested were added to the cell plate (100 μl of 2% DMSO/media added to control wells). Plates were then incubated for 2.5 days at 37° C. with 5% CO2. Plates were pulsed with 50 μl/well 3H-thymidine at 0.5 uCi/well then incubated for 6 hours at 37° C. with 5% CO2. Cells were harvested using Cell Harvester (TomTec) and counted on TopCount (Perkin Elmer).

sLFA-1/ICAM-1, sequence (P20701 26-1090 limits assumed, stated change not applied): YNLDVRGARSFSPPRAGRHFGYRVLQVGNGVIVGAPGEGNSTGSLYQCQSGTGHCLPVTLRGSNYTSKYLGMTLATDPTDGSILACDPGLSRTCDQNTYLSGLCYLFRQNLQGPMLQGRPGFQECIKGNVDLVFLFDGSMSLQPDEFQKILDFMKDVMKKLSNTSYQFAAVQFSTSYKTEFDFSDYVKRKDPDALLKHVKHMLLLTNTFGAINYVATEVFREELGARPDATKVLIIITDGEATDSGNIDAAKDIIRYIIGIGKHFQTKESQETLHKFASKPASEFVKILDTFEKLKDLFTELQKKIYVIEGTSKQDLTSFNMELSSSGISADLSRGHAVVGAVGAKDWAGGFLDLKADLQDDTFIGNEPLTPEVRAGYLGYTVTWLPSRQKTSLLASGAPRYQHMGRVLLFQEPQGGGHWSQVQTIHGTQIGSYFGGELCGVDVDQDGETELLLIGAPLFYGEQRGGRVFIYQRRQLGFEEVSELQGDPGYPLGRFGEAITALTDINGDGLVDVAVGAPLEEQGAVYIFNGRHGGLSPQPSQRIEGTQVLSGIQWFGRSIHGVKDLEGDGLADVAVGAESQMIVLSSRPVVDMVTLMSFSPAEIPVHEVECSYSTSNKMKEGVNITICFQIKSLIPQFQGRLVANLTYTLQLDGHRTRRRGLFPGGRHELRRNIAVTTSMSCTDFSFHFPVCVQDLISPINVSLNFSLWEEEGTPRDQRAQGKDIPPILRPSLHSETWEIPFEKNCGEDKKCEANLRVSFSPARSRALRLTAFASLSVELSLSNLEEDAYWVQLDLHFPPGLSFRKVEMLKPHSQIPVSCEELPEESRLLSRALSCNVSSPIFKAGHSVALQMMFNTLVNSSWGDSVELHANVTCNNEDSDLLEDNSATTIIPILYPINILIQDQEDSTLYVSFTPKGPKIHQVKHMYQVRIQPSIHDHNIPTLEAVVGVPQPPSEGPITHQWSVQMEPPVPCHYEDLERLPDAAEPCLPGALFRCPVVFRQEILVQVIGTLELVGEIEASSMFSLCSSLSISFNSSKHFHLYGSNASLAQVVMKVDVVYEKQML
sLFA-1/ICAM-1, sequence (P05107 23-700 limits assumed, stated change not applied): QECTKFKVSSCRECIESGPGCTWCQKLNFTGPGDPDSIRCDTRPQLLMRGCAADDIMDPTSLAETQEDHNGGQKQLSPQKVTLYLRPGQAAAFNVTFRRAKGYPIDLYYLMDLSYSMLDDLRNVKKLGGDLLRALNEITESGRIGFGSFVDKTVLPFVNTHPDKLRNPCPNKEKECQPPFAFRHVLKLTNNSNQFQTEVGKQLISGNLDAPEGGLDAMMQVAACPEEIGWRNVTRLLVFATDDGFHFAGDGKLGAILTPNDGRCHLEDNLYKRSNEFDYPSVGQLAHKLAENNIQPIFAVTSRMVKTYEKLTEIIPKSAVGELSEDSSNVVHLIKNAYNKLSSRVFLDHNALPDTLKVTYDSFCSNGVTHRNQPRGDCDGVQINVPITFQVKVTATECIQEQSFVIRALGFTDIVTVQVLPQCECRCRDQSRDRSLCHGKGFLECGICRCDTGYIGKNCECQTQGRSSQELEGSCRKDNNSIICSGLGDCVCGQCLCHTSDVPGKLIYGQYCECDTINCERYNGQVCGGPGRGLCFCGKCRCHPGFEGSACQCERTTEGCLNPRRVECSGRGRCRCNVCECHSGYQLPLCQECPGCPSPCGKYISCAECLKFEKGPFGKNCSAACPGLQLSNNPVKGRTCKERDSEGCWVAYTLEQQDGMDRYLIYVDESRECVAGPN

| SMILES | IC50 (sLFA-1/ICAM-1) [µM] | IC50 (Mac-1/ICAM-1) [µM] | IC50 [1] [µM] |
| --- | --- | --- | --- |
| Cc1nc(NCCCc2cc(O)cc(F)c2)nc(C)c1C(=O)N[C@@H](CNC(=O)c1cccs1)C(=O)O [Example 64, (S)-2-({2-[3-(3-Fluoro-5-hydroxy-phenyl)-propylamino]-4,6-dimethyl-pyrimidine-5-carbonyl}-amino)-3-[(thiophene-2-carbonyl)-amino]-propionic acid] | 0.035 | 0.023 | 1.35 |
| Cc1nc(NCCCc2cccc(O)c2)nc(C)c1C(=O)N[C@@H](CNC(=O)c1cc(O)cc(O)c1)C(=O)O [Example 81] | 0.012 | 0.039 | 0.073 |
| Cc1nc(NCCCc2cccc(O)c2)nc(C)c1C(=O)N[C@@H](CNC(=O)c1cccs1)C(=O)O [Example 8, (S)-2-({2-[3-(3-hydroxy-phenyl)-propylamino]-4,6-dimethyl-pyrimidine-5-carbonyl}-amino)3-[(thiophene-2-carbonyl)-amino]-propionic acid] | 0.04 | 0.12 | 0.678 |
| Cc1nc(CCCCc2cccc(O)c2)nc(C)c1C(=O)N[C@@H](CNC(=O)c1cccs1)C(=O)O [Example 1, (S)-2-({2-[4-(3-hydroxy-phenyl)-butyl]-4,6-dimethyl-pyrimidine-5-carbonyl}-amino)-3-[(thiophene-2-carbonyl)-amino]-propionic acid] | 0.073 | 0.441 | 4.46 |
| Cc1nc(NCC#Cc2cccc3[nH]ncc23)nc(C)c1C(=O)N[C@@H](CNC(=O)c1cccs1)C(=O)O [Example 62, (S)-2-({2-[3-(1H-Indazol-4-yl)-prop-2-ynylamino]-4,6-dimethyl-pyrimidine-5-carbonyl}-amino)-3-[(thiophene-2-carbonyl)-amino]-propionic acid] | 0.08 | 0.045 | 3.81 |
| Cc1nc(NCCCc2cccc3[nH]ncc23)nc(C)c1C(=O)N[C@@H](CNC(=O)c1cccs1)C(=O)O [Example 6, (S)-2-({2-[3-(1H-indazol-4-yl)-propylamino]-4,6-dimethyl-pyrimidine-5-carbonyl}-amino)3-[(thiophene-2-carbonyl)-amino]-propionic acid] | 0.021 | 0.02 | 0.374 |
